The source of these data is ChEMBL document CHEMBL1127910, “Structural basis for the differential RXR & RAR activity of stilbene retinoid analogs” (Bioorg Med Chem Lett, 1994).

Assay [1] has as its target T1, Retinoic acid receptor alpha (Homo sapiens, UniProt P10276).
T1 sequence (P10276 whole entry): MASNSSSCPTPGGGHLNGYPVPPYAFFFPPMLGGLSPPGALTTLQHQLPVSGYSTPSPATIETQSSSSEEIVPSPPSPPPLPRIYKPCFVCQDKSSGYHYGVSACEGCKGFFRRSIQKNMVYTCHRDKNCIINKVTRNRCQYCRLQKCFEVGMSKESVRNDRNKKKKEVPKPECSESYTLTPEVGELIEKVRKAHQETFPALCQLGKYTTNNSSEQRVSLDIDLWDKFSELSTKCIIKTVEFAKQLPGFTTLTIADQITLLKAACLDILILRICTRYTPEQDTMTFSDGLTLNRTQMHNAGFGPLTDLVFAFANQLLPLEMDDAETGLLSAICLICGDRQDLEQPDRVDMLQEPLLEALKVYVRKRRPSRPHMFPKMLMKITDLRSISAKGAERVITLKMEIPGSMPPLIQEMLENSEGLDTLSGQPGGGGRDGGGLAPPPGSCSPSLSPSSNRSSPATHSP
Put plainly: Transcriptional activation for RAR alpha receptor.

The target in assay [2] is T2, Retinoic acid receptor gamma (Homo sapiens, UniProt P13631).
T2 sequence (P13631 whole entry): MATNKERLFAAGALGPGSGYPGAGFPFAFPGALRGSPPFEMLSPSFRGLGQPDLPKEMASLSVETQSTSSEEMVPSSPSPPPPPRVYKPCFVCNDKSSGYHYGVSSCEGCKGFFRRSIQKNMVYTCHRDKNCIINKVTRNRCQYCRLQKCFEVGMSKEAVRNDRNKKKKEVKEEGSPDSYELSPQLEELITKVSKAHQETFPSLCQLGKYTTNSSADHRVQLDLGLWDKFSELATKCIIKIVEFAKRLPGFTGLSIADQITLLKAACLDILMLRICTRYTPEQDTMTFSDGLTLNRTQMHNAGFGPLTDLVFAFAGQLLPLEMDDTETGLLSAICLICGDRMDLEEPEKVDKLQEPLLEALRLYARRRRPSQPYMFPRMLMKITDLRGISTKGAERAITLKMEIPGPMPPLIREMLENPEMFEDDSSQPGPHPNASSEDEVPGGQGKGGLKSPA
Put plainly: Transcriptional activation for RAR gamma receptor.

For assay [3], the target named is T3, Retinoic acid receptor RXR-alpha (Homo sapiens, UniProt P19793).
T3 sequence (P19793 whole entry): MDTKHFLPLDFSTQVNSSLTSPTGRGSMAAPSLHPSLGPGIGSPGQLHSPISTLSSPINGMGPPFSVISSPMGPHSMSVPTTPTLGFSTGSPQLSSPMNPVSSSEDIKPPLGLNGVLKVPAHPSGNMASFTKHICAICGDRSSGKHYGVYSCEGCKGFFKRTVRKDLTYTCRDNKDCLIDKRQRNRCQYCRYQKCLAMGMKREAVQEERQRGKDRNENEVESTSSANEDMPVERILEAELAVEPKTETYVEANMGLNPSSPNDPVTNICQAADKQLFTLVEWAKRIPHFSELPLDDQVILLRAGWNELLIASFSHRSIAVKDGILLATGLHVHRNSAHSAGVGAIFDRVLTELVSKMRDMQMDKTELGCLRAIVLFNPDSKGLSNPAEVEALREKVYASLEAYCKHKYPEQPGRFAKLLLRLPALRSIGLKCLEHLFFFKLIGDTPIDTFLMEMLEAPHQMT

The target in assay [4] is T4, Retinoic acid receptor beta (Homo sapiens, UniProt P10826).
T4 sequence (P10826 whole entry): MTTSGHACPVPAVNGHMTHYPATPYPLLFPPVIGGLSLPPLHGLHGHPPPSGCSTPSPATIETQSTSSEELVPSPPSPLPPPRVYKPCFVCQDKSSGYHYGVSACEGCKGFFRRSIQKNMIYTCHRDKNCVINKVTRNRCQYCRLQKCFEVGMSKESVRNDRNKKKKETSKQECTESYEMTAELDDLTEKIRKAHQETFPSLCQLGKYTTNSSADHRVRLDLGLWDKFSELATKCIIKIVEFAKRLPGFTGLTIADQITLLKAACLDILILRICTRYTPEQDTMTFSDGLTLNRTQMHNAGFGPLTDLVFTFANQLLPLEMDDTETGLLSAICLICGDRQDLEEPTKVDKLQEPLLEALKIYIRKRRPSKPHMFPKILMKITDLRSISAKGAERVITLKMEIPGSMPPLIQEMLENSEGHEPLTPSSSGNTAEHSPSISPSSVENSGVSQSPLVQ
Put plainly: Transcriptional activation for RAR beta receptor.

Assay [5] deals with T3, Retinoic acid receptor RXR-alpha. Put plainly: Transcriptional activation for RXR alpha receptor.
Assay [6] addresses T1, Retinoic acid receptor alpha. Put plainly: Transcriptional activation for RAR alpha receptor; not active (EC50>10e4 nM).
The target in assay [7] is T2, Retinoic acid receptor gamma. Put plainly: Transcriptional activation for RAR gamma receptor; not active (EC50>10e4 nM).
Assay [8] deals with T4, Retinoic acid receptor beta. Put plainly: Transcriptional activation for RAR beta receptor; not active (EC50>10e4 nM).

In the case of `C/C(=C\c1ccc2c(c1)C(C)(C)CCC2(C)C)c1ccc(C(=O)O)cc1`, the EC50 in assay [1] is 24 nM; in assay [2], 0.4 nM; in assay [3], “Not Active”; in assay [4] it was 0.5 nM.

With `C/C(=C\c1ccc(C(=O)O)cc1)c1cc2c(cc1Br)C(C)(C)CCC2(C)C`, the EC50 is 989 nM in assay [1], 91 nM in assay [2], 21 nM in assay [4] and 298 nM in assay [5].

As to `Cc1cc2c(cc1/C=C/c1ccc(C(=O)O)cc1)C(C)(C)CCC2(C)C`, the EC50 in assay [1] was 15 nM; in assay [2], 1.4 nM; in assay [3], “Not Active”; in assay [4], 0.4 nM.

Consider `C/C(=C\c1ccc(C(=O)O)cc1)c1cc2c(cc1Cl)C(C)(C)CCC2(C)C`, for which the EC50 was more than 1000 nM in assay [1], 77 nM in assay [2], 21 nM in assay [4] and 275 nM in assay [5].

`CCc1cc2c(cc1/C(C)=C/c1ccc(C(=O)O)cc1)C(C)(C)CCC2(C)C`: the EC50 in assay [2] is 195 nM; in assay [4], 961 nM; in assay [5] it was 2220 nM; in assay [6] it was “Not Active”.

Regarding `C/C(=C\c1ccc(C(=O)O)cc1)c1ccc2c(c1)C(C)(C)CCC2(C)C`, in assay [3], the EC50 result is “Not Active”.

Regarding `CC(=Cc1ccc(C(=O)O)cc1)c1cc2c(cc1C)C(C)(C)CCC2(C)C`, the EC50 entry in assay [7] was “Not Active”; in assay [8], “Not Active”; in assay [5], more than 6400 nM; in assay [6] it was “Not Active”.

Take `C/C(=C\c1ccc(C(=O)O)cc1)c1cc2c(cc1C)C(C)(C)CCC2(C)C`: the EC50 in assay [1] stood at 4580 nM; in assay [2], 152 nM; in assay [4], 74 nM; in assay [5], 385 nM.

With `CC1(C)CCC(C)(C)c2cc(/C=C/c3ccc(C(=O)O)cc3)ccc21`, the EC50 in assay [1] is 11 nM; in assay [2] it was 0.4 nM; in assay [3], “Not Active”; in assay [4], 0.4 nM.

Usually EC50 stands for the concentration that produces a half-maximal response.
